Columns and labels:
[1] = tested on: SHR (spontaneously hypertensive rat); assay: Pulse rate by the tail cuff method in SHR rats; type: in vivo; conditions: mean±SD; for Pulse rate (bpm) Before dosing: n=10, baseline in acclimatization period; for Pulse rate (bpm) 2nd dosing week: n=10, oral once daily, CM6271 300 mg/kg, hydralazine 5 mg/kg, 23 to 25 hours after dosing in 2nd dosing week
Experimental: (§1) For statistical analysis of blood pressure, pulse rate and body weight data, Dunnett test was used to make intergroup comparisons, and the level of significance was less than 5% (p<0.05) and less than 1% (p<0.01).
(§2) Systolic blood pressure and pulse rate were measured in all animals by the tail cuff method using an automated noninvasive sphygmomanometer (BP-98A, Softron Co., Ltd.) once during the acclimatization period and 23 to 25 hours after dosing in the second dosing week. Figures in Table 2 represent mean±SD.

[2] = Body weight of SHR rats during daily oral dosing; type: in vivo, rat; conditions: n=10, oral once daily, CM6271 300 mg/kg, hydralazine 5 mg/kg
Text: Figures in Table 1 represent mean±SD (standard deviation).

[3] = tested on: SHR (spontaneously hypertensive rat); conditions: SHR rats, observed once daily at dosing
[4] = tested on: SHR (spontaneously hypertensive rat); assay: Systolic blood pressure by the tail cuff method in SHR rats; type: in vivo; conditions: mean±SD; for Blood pressure (mmHg) Before dosing: n=10, baseline in acclimatization period; for Blood pressure (mmHg) 2nd dosing week: n=10, oral once daily, CM6271 300 mg/kg, hydralazine 5 mg/kg, 23 to 25 hours after dosing in 2nd dosing week, *p<0.05, **p<0.01 vs. control
Experimental: as §1, §2

NNc1nncc2ccccc12 [Hydralazine, hydralazine]
Pulse rate (bpm) Before dosing [1]: 401.3 ± 19.4 bpm | Pulse rate (bpm) Before dosing ([1]; listed as hydralazine): 401.3 bpm | Pulse rate (bpm) 2nd dosing week [1]: 423.6 ± 31.9 bpm | Pulse rate (bpm) 2nd dosing week ([1]; listed as hydralazine): 423.6 bpm | Body weight (g) Day 15 ([2]; Day 15, mean±SD): 261.5 ± 13.7 g | Body weight (g) Day 22 ([2]; Day 22, mean±SD): 276.1 ± 12.8 g | General observations [3]: Soft stools were observed in some animals | Blood pressure (mmHg) Before dosing [4]: 164.9 ± 8.8 mmHg | Blood pressure (mmHg) Before dosing ([4]; listed as hydralazine): 164.9 mmHg | Blood pressure (mmHg) 2nd dosing week [4]: 138.4 ± 12.1** mmHg | Blood pressure (mmHg) 2nd dosing week ([4]; listed as hydralazine): 138.4 mmHg
